Drawing on patent US5712417A, “Inhibitors of retroviral proteases” (Abbott Laboratories, priority 1989, dated 1998), this text covers IC50 for nine compounds.

Structures can show the parent of a compound that is named as a salt.

The assay concerns the target T1, HIV protease (Human immunodeficiency virus type 1 group M subtype B, UniProt P04585).
T1 construct: HIV protease consists of 99 amino acids and is evidently split off by itself from the pol polyprotein
Briefly: Inhibition of HIV protease (cleavage of H-Ser-Phe-Asn-Phe-Opr-Gln-Ile-OH, HPLC). The note with it: inhibitor concentration at which the cleavage rate is halved; pH 6, 2 hours; read-out: IC50. Format: biochemical. From the text: The compounds of the formula (I) according to the invention have enzyme-inhibiting properties. In particular, they inhibit the action of retroviral aspartyl proteases, such as that of HIV protease. Their enzyme-inhibitory action, which is in the milli- to subnanomolar range, can be determined as follows.
The heptapeptide: H-Ser-Phe-Asn-Phe-Pro-Gln-Ile-OH (P. L. Darke et al., Biophys. Res. Commun. 156 (1988) 297-303), inter alia, has hitherto been used as the substrate of HIV protease. HIV protease cleaves the substrate here between the second Phe and Pro.
General instructions for testing inhibitors of HIV proteases: a) Preparation of the substrate solution:
2 mg of H-Ser-Phe-Asn-Phe-Opr-Gln-Ile-OH (H-Opr-OH=5-oxaproline) are dissolved in 1 ml of MGTE15 buffer (use of ultrasound if necessary) and the solution is then filtered over a sterile filter (0.45 μm). […]
b) Preparation of the inhibitor solution:
2.5 times the desired molarity of the inhibitor per ml of solution are weighed out and dissolved in DMSO (10% of the final volume). The solution is diluted to the final volume with MGTE15 buffer and filtered over a sterile filter (0.45 μm). […]
c) Preparation of the protease solution:
5 μl of the HIV protease solution are diluted with MGTE25 buffer as required.
10 μl portions of the substrate solution are pipetted into test-tubes (16×100) with a screw cap. For the blank experiment, 10 μl of MGTE15 buffer containing 10% of DMSO are pipetted into a test-tube. 10 μl portions of the inhibitor solutions are added to the other test-tubes. The mixtures are incubated at 37° C. for 5-10 minutes and 5 μl of the protease solution are then added to each sample, After reaction at 35° C. for 2 hours, 10 or 20 μl (depending on the sensitivity of the HPLC apparatus) of each sample are then pipetted off, introduced into microvials and diluted with 120 μl of the HPLC mobile phase. […]
e) Conditions for the HPLC analysis:
20% (weight/weight) of aceto-
Column: Merck ®LICHROSORB RP18 (5 μm) 250×4
Column temperature: 42° C.
Detector parameters: 215 nm, 0.08 AUF, 18.2° C.
Analysis time: 11 minutes
Retention time of the substrate: 8.1 minutes
Retention time of the N-terminal tetrapeptide: 3.9 minutes
20 mM morpholinoethanesulfonic acid (MES)
15% (weight/volume) of glycerol
0.1% (volume/volume) of Triton ×100
1 mM phenylmethylsulfonyl fluoride (PMSF)
25% (weight/volume) of glycerol, additionally 1 mM dithiothreitol (DTT) The MES, EDTA, NaCl, DTT and PMSF are weighed into a conical flask and dissolved in a little water and the pH is brought to 6. The corresponding amount of glycerol is weighed into a measuring flask and ®Triton ×100 is pipetted in. The aqueous solution is transferred to the measuring flask and made up to the mark with water.
A 0.1M solution is prepared from orthophosphoric acid (FLUKA extra pure analytical grade). This solution is brought to exactly pH 2.5 with triethylamine (FLUKA extra pure analytical grade). The weight of the solution is determined and the corresponding amount of acetonitrile (fume cupboard) is weighed in. The mixture is mixed thoroughly and degassed with helium 5.0 for about 5 minutes.
Under the conditions chosen here, heptapeptides are separated from the N-terminal tetrapeptide formed during enzymatic cleavage. The percentage content of the tetrapeptide peak in respect of the sum of tetrapeptide+heptapeptide corresponds to the cleaving rate. The following IC50 values indicate the inhibitor concentration at which the cleavage rate is halved.
For orientation: IC50 means the point on the concentration scale where inhibition reaches its midpoint. Regarding `CC(C)(C)OC(=O)N[C@H](CNC[C@H](Cc1ccccc1)NC(=O)OC(C)(C)C)Cc1ccccc1` [Example 25, Bis-(N-tert.-butoxycarbonyl-2S-amino-3-phenylpropyl)-amine hydrochloride], the IC50 came to 18 µM.

As to `CC(C)[C@H](NC[C@@H](N)Cc1ccccc1)C(=O)N[C@@H](Cc1ccccc1)[C@H](O)[C@@H](O)[C@H](Cc1ccccc1)NC(=O)[C@@H](NC[C@@H](N)Cc1ccccc1)C(C)C` [Example 28, N,N'-bis-(2S-<2S-Amino-3-phenylpropyl>-amino-3-methyl-butanoyl)-2S,5S-diamino-1,6-diphenylhexane-3S,4S-diol tetrahydrochloride], the IC50 was determined as 3 µM.

Turning to `CC(C)[C@H](NC(=O)[C@@H](N)Cc1ccccc1)C(=O)N[C@H](Cc1ccccc1)[C@@H](O)[C@H](O)[C@@H](Cc1ccccc1)NC(=O)[C@@H](NC(=O)[C@@H](N)Cc1ccccc1)C(C)C` [Example 30, N,N'-bis-(L-Phenylalanyl-L-valyl)-2R,5R-diamino-1,6-diphenylhexane-3R,4R-diol dihydrochloride], the IC50 was 0.03 µM.

As to `CC(C)[C@H](NC(=O)[C@H](Cc1ccccc1)NC(=O)OC(C)(C)C)C(=O)N[C@H](Cc1ccccc1)[C@@H](O)[C@H](O)[C@@H](Cc1ccccc1)NC(=O)[C@@H](NC(=O)[C@H](Cc1ccccc1)NC(=O)OC(C)(C)C)C(C)C` [Example 33, N,N'-bis-(tert.-Butoxycarbonyl-L-phenylalanyl-L-valyl)-2R,5R-diamino-1,6-diphenylhexane-3R,4R-diol], the IC50 worked out at 20 µM.

Regarding `CC(C)[C@H](NC(=O)[C@@H](N)Cc1cccc2ccccc12)C(=O)N[C@@H](Cc1ccccc1)[C@@H](O)[C@H](O)[C@H](Cc1ccccc1)NC(=O)[C@@H](NC(=O)[C@@H](N)Cc1cccc2ccccc12)C(C)C` [Example 39, N,N'-bis-(L-(1-Naphthyl)-alanyl-L-valyl)-2S,5S-diamino-1,6-diphenylhexane-3R,4R-diol dihydrochloride], the IC50 amounted to 0.0013 µM.

`CC(C)[C@H](NC(=O)[C@H](Cc1cccc2ccccc12)NC(=O)OC(C)(C)C)C(=O)N[C@@H](Cc1ccccc1)[C@@H](O)[C@H](O)[C@H](Cc1ccccc1)NC(=O)[C@@H](NC(=O)[C@H](Cc1cccc2ccccc12)NC(=O)OC(C)(C)C)C(C)C` [Example 40, N,N'-bis-(tert.-Butoxycarbonyl-L-(1-naphthyl)-alanyl-L-valyl)-2S,5S-diamino-1,6-diphenylhexane-3R,4R-diol]: the IC50 was determined as 0.013 µM.

Take `CC(C)[C@H](NC(=O)[C@@H](N)Cc1ccccc1)C(=O)N[C@@H](CC1CCCCC1)[C@H](O)[C@@H](O)[C@H](CC1CCCCC1)NC(=O)[C@@H](NC(=O)[C@@H](N)Cc1ccccc1)C(C)C` [Example 43, N,N'-bis-[L-Phenylalanyl-L-valyl]-2S,5S-diamino-1,6-dicyclohexylhexane-3S,4S-diol dihydrochloride]: the IC50 was determined as 0.001 µM.

Regarding `CC(C)[C@H](NC(=O)[C@H](Cc1ccccc1)NC(=O)OC(C)(C)C)C(=O)N[C@@H](CC1CCCCC1)[C@H](O)[C@@H](O)[C@H](CC1CCCCC1)NC(=O)[C@@H](NC(=O)[C@H](Cc1ccccc1)NC(=O)OC(C)(C)C)C(C)C` [Example 45, N,N'-bis-(tert.-Butoxycarbonyl-L-phenylalanyl-L-valyl)-2S,5S-diamino-1,6-dicyclohexylhexane-3S,4S-diol], the IC50 worked out at 1.5 µM.

With `CC(C)(C)OC(=O)N[C@@H](CC1CCCCC1)[C@H](O)[C@H](O)[C@H](CC1CCCCC1)NC(=O)OC(C)(C)C` [Example 48, N,N'-bis-(tert.-Butoxycarbonyl)-2S, 5S-diamino-1,6-dicyclohexylhexane-3R, 4S-diol], the IC50 came out at 80 µM.
